From the NIST ThermoML archive (doi:10.1016/j.fluid.2017.09.019)

Assay: wn = mass fraction of the nth substance listed
Settings: 101 kPa, Liquid; for viscosity: Concentric cylinders viscometry; for mass density: Vibrating tube method

CC(O)CN(C)C (stereo not given) [1-(dimethylamino)-2-propanol] + O
Settings | mass density [kg/m3] | viscosity [mPa·s]
298.15 K, w1 = 0.2 | 988.2 | 2.407
298.15 K, w1 = 0.25 | 986.5 | 2.995
298.15 K, w1 = 0.3 | 984.4 | 3.886
298.15 K, w1 = 0.35 | 979.5 | 4.735
298.15 K, w1 = 0.4 | 976.4 | 5.67
298.15 K, w1 = 0.45 | 970.3 | 6.602
298.15 K, w1 = 0.5 | 966.2 | 7.632
298.15 K, w1 = 0.6 | 949.4 | 8.956
298.15 K, w1 = 0.7 | 930.9 | 9.925
298.15 K, w1 = 0.8 | 908.8 | 8.482
298.15 K, w1 = 0.9 | 879.8 | 5.585
298.15 K, w1 = 0.95 | 863.9 | 3.79
298.15 K, w1 = 0.96 | 858.1 | 3.282
298.15 K, w1 = 0.98 | 852.4 | 2.094
298.15 K, w1 = 1 | 845.4 | 1.332
303.15 K, w1 = 0.2 | 985.7 | 2.018
303.15 K, w1 = 0.25 | 983.5 | 2.51
303.15 K, w1 = 0.3 | 981 | 3.097
303.15 K, w1 = 0.35 | 976.1 | 3.805
303.15 K, w1 = 0.4 | 972.1 | 4.54
303.15 K, w1 = 0.45 | 966.4 | 5.187
303.15 K, w1 = 0.5 | 962.1 | 5.965
303.15 K, w1 = 0.6 | 944.6 | 6.964
303.15 K, w1 = 0.7 | 925.3 | 7.654
303.15 K, w1 = 0.8 | 903.5 | 6.762
303.15 K, w1 = 0.9 | 875 | 4.935
303.15 K, w1 = 0.95 | 858.9 | 3.199
303.15 K, w1 = 0.96 | 853.1 | 2.783
303.15 K, w1 = 0.98 | 847.3 | 1.875
303.15 K, w1 = 1 | 840.3 | 1.183
308.15 K, w1 = 0.2 | 983 | 1.738
308.15 K, w1 = 0.25 | 980.6 | 2.115
308.15 K, w1 = 0.3 | 977.8 | 2.559
308.15 K, w1 = 0.35 | 972.4 | 3.115
308.15 K, w1 = 0.4 | 968.3 | 3.647
308.15 K, w1 = 0.45 | 961.8 | 4.156
308.15 K, w1 = 0.5 | 957.7 | 4.75
308.15 K, w1 = 0.6 | 940 | 5.487
308.15 K, w1 = 0.7 | 919.8 | 6.02
308.15 K, w1 = 0.8 | 899.1 | 5.106
308.15 K, w1 = 0.9 | 870.1 | 3.396
308.15 K, w1 = 0.95 | 854.1 | 2.463
308.15 K, w1 = 0.96 | 848.4 | 2.211
308.15 K, w1 = 0.98 | 842.4 | 1.499
308.15 K, w1 = 1 | 835.5 | 1.059
313.15 K, w1 = 0.2 | 980.4 | 1.509
313.15 K, w1 = 0.25 | 977.5 | 1.803
313.15 K, w1 = 0.3 | 973.6 | 2.161
313.15 K, w1 = 0.35 | 968.4 | 2.587
313.15 K, w1 = 0.4 | 964.1 | 3.016
313.15 K, w1 = 0.45 | 957.8 | 3.375
313.15 K, w1 = 0.5 | 953.4 | 3.851
313.15 K, w1 = 0.6 | 935.4 | 4.387
313.15 K, w1 = 0.7 | 915.8 | 4.853
313.15 K, w1 = 0.8 | 894.1 | 4.197
313.15 K, w1 = 0.9 | 865.3 | 2.909
313.15 K, w1 = 0.95 | 849.3 | 2.048
313.15 K, w1 = 0.96 | 843.6 | 1.835
313.15 K, w1 = 0.98 | 837.6 | 1.322
313.15 K, w1 = 1 | 830.7 | 0.955
318.15 K, w1 = 0.2 | 977.5 | 1.325
318.15 K, w1 = 0.25 | 974.3 | 1.562
318.15 K, w1 = 0.3 | 969.8 | 1.852
318.15 K, w1 = 0.35 | 964.1 | 2.194
318.15 K, w1 = 0.4 | 959.9 | 2.523
318.15 K, w1 = 0.45 | 953.6 | 2.808
318.15 K, w1 = 0.5 | 949 | 3.178
318.15 K, w1 = 0.6 | 930.7 | 3.577
318.15 K, w1 = 0.7 | 910.9 | 3.973
318.15 K, w1 = 0.8 | 889.4 | 3.577
318.15 K, w1 = 0.9 | 860.5 | 2.629
318.15 K, w1 = 0.95 | 844.4 | 1.921
318.15 K, w1 = 0.96 | 838.7 | 1.735
318.15 K, w1 = 0.98 | 832.6 | 1.2
318.15 K, w1 = 1 | 825.8 | 0.866
323.15 K, w1 = 0.2 | 974.2 | 1.179
323.15 K, w1 = 0.25 | 971 | 1.363
323.15 K, w1 = 0.3 | 966.2 | 1.598
323.15 K, w1 = 0.35 | 960.2 | 1.868
323.15 K, w1 = 0.4 | 955.5 | 2.129
323.15 K, w1 = 0.45 | 949.4 | 2.36
323.15 K, w1 = 0.5 | 944.5 | 2.652
323.15 K, w1 = 0.6 | 925.9 | 2.974
323.15 K, w1 = 0.7 | 906.8 | 3.301
323.15 K, w1 = 0.8 | 884.6 | 2.909
323.15 K, w1 = 0.9 | 855.9 | 1.929
323.15 K, w1 = 0.95 | 839.5 | 1.357
323.15 K, w1 = 0.96 | 833.8 | 1.192
323.15 K, w1 = 0.98 | 827.7 | 1.003
323.15 K, w1 = 1 | 820.9 | 0.788
328.15 K, w1 = 0.2 | 971.2 | 1.05
328.15 K, w1 = 0.25 | 967.6 | 1.201
328.15 K, w1 = 0.3 | 962.4 | 1.402
328.15 K, w1 = 0.35 | 955.6 | 1.62
328.15 K, w1 = 0.4 | 951.3 | 1.821
328.15 K, w1 = 0.45 | 944.2 | 2.008
328.15 K, w1 = 0.5 | 940.1 | 2.239
328.15 K, w1 = 0.6 | 921.2 | 2.486
328.15 K, w1 = 0.7 | 901.7 | 2.781
328.15 K, w1 = 0.8 | 880 | 2.471
328.15 K, w1 = 0.9 | 850.6 | 1.824
328.15 K, w1 = 0.95 | 834.6 | 1.348
328.15 K, w1 = 0.96 | 828.8 | 1.208
328.15 K, w1 = 0.98 | 822.8 | 0.983
328.15 K, w1 = 1 | 816 | 0.72
333.15 K, w1 = 0.2 | 967.8 | 0.934
333.15 K, w1 = 0.25 | 964.2 | 1.067
333.15 K, w1 = 0.3 | 958.4 | 1.236
333.15 K, w1 = 0.35 | 950.9 | 1.483
333.15 K, w1 = 0.4 | 946.7 | 1.577
333.15 K, w1 = 0.45 | 939.2 | 1.724
333.15 K, w1 = 0.5 | 936.1 | 1.911
333.15 K, w1 = 0.6 | 916 | 2.106
333.15 K, w1 = 0.7 | 897.1 | 2.374
333.15 K, w1 = 0.8 | 875.3 | 2.182
333.15 K, w1 = 0.9 | 845 | 1.687
333.15 K, w1 = 0.95 | 830.9 | 1.236
333.15 K, w1 = 0.96 | 823.8 | 1.102
333.15 K, w1 = 0.98 | 817.9 | 0.853
333.15 K, w1 = 1 | 811.1 | 0.662
